Test results as given in US11987804B2, “Rapamycin resistant cells” (Seattle Children's Hospital, priority 2018, dated 2024).

How the values were obtained:
CD4+ T cells [1] = assay: Selective expansion of DISC/HA-FOXP3 edited Treg cells (flow cytometry for HA tag and FOXP3); assay type: cell-based, human; settings: 50 ng/mL IL-2, 10 nM Rapamycin or 100 nM AP21967
Excerpt: This Example illustrates the use of gene editing technology to knock-in a construct encoding the DISC and a promoter upstream of the endogenous FOXP3 (Forkhead box P3) locus in CD4+ T cells. […] In brief, a CRISPR/CAS9 ribonucleoprotein containing a guide RNA (gRNA) specific for a locus 5′ of exon 1 of FOXP3 was used in combination with an adeno-associated virus 6 (AAV6) donor template for FOXP3 gene editing The gRNA included a spacer having the sequence of SE ID NO:58. An ectopic MND promoter was introduced to drive DISC expression upstream of endogenous FOXP3. Expression of FOXP3 was designed to be in-frame with an N-terminal hemagglutinin (HA) epitope tag and nuclear localization sequence to generate a chimeric protein.

CD4+ T cells [2] = assay: Regulatory T cell marker phenotype of DISC-expressing edited Treg cells; assay type: cell-based, human; settings: IL-2 50 ng/mL, rapamycin 10 nM or AP21967 100 nM
μDISC GFP edTreg = assay: In vivo expansion of μDISC GFP edTreg by rapamycin in humanized mouse model; set-up: species or system NOD-scid-IL2RgNULL (NSG) mice; settings: for CD25+ GFP+ edTreg cells / CD25− GFP+ edTreg cells / CD127+ GFP+ edTreg cells / CD127− GFP+ edTreg cells: peripheral blood seven days post-transfer, rapamycin 0.1 mg/kg i.p. every other day, representative mouse
Procedure: This Example describes experiments performed to test the capacity of edTreg cells expressing a μDISC construct to be expanded in vivo by rapamycin treatment. […] There are also conditions under which it is not desirable to expand Tregs, for example, in some cases of infection. Therefore, a useful feature of engineered cells provided herein having Treg features is the ability to exert control on expansion in vivo. Experiments were carried out to determine whether rapamycin could increase the number of μDISC edTregs in vivo using a humanized mouse model, which included human cells transferred into immune-incompetent NOD-scid-IL2RgNULL (NSG) mice. For these experiments, cells were edited using an AAV donor to drive cis-linked expression of the μDISC and endogenous FOXP3 from the MND promoter. This AAV donor template incorporates a GFP fusion protein at the N-terminal of endogenous FOXP3. The GFP-labeled FOXP3 fusion protein was used to facilitate the ability to detect gene-edited cells within the in vivo cell samples. […] The beads were then removed at Day −1. […] In the three-phase expansion protocol used in this experiment, the timing of Expansion Phase 0 flow cytometry was on Day 2. Recovered cells after Expansion Phase 0 were then transferred to the G-rex® flask and expanded in the presence of 10 nM rapamycin to select edited cells (Expansion Phase 1; Days 3-9) and to allow DISC edTreg enrichment, followed by flow cytometry and addition of anti-CD3/CD28 beads (Expansion Phase 2; Days 9-16; in the presence of 10 nM rapamycin). Flow cytometry was performed at Days 2, 9, 12, and 16 to monitor edited GFP+FOXP3+ cell expansion.
NSG mice were pre-treated with rapamycin in order to saturate rapamycin binding proteins and provide rapamycin in serum.
The μDISC GFP edTregs (or mock-edited cells) were then injected i.v. according to the following general procedure. Starting from Day −4, intraperitoneal (i.p.) injection of rapamycin 0.1 mg/kg was carried out every other day until Day 21. At Day 0, irradiation was performed and μDISC edTreg was i.v. injected. Peripheral blood samples were collected to either test for rapamycin levels (Day 2) or for flow cytometry (Days 7, 14, 21, and 28) to track the phenotype and number of transferred human T cells including GFP+ edTreg cells.
To illustrates expansion of μDISC GFP edTreg in rapamycin treated vs. vehicle, flow cytometry results from peripheral blood seven days post-transfer into NSG are shown in Table 11 below (Gate: live, hCD45+, hCD4+), where human T cell markers and GFP+ are shown for a representative mouse from each cohort.

[3] = system: primary human CD4+ T cells; assay: Three-phase expansion protocol for μDISC edTreg (flow cytometry HA/FOXP3, cell counts); assay type: cell-based; settings: for Day-3 flow cytometry Q4 / Day-10 flow cytometry Q3 / Day-10 flow cytometry Q4 / Day-15 flow cytometry Q4: Expansion Phase 0 additive 50 μg/mL IL-2, 10 nM rapamycin or 100 nM AP21967; for Day-3 flow cytometry Q1 / Day-10 flow cytometry Q1 / Day-15 flow cytometry Q1: Q1 = HA- FOXP3+; for Day-10 flow cytometry Q3 / Day-10 flow cytometry Q4 / Day-10 flow cytometry Q1: after Expansion Phase 1; for Day-15 flow cytometry Q4 / Day-15 flow cytometry Q3 / Day-15 flow cytometry Q1: after Expansion Phase 2
Procedure: Recovered cells after Expansion Phase 0 were then transferred to the G-Rex flask and expanded in rapamycin (Expansion Phase 1; Days 3-10) to allow DISC edTreg enrichment, followed by addition of anti-CD3/CD28 beads (Expansion Phase 2; Days 10-15). The same AAV construct as shown in FIG. 13A was used in this experiment.
After Expansion Phase 1 (Day 10), successfully edited cells were assessed by flow cytometry.

[4] = peripheral blood Day 7 and Day 14, rapamycin treated vs. vehicle
[5] = Expansion Phase 0 additive, 10 nM rapamycin or 100 nM AP21967

Structure (SMILES) | percentage of double positive cells (expressing HA-FOXP3), DISC/HA-FOXP3 (CD4+ T cells [1]; 7 day post-treatment) [%] | percentage of double positive cells (expressing HA-FOXP3), Mock (CD4+ T cells [1]; 7 day post-treatment) [%] | percentage of double positive cells (expressing HA-FOXP3), DISC/HA-FOXP3 (CD4+ T cells [1]; 15 day post-treatment) [%] | CD25+ FOXP3+ (CD4+ T cells [2]) [%] | CD25+ FOXP3− (CD4+ T cells [2]) [%] | CD 127+ FOXP3+ (CD4+ T cells [2]) [%] | CD 127+ FOXP3− (CD4+ T cells [2]) [%] | CTLA4+ FOXP3+ (CD4+ T cells [2]) [%] | CTLA4+ FOXP3− (CD4+ T cells [2]) [%] | ICOS+ FOXP3+ (CD4+ T cells [2]) [%] | ICOS+ FOXP3− (CD4+ T cells [2]) [%] | LAG3+ FOXP3+ (CD4+ T cells [2]) [%] | LAG3+ FOXP3− (CD4+ T cells [2]) [%] | Day-3 flow cytometry Q4 [3] [%] | Day-3 flow cytometry Q3 [3, 5] [%] | Day-3 flow cytometry Q1 [3, 5] [%] | Day-10 flow cytometry Q3 [3] [%] | Day-10 flow cytometry Q4 [3] [%] | Day-10 flow cytometry Q1 [3, 5] [%] | Day-15 flow cytometry Q4 [3] [%] | further results
CO[C@H]1C[C@@H]2CC[C@@H](C)[C@@](O)(O2)C(=O)C(=O)N2CCCC[C@H]2C(=O)O[C@H]([C@H](C)C[C@@H]2CC[C@@H](O)[C@H](OC)C2)CC(=O)[C@H](C)/C=C(\C)[C@@H](O)[C@@H](OC)C(=O)[C@H](C)C[C@H](C)/C=C/C=C/C=C/1C [Rapamycin, (3S,6R,7E,9R,10R,12R,14S,15E,17E,19E,21S,23S,26R,27R,34aS)-9,10,12,13,14,21,22,23,24,25,26,27,32,33,34,34a-hexadecahydro-9,27-dihydroxy-3-[(1R)-2-[(1S,3R,4R)-4-hydroxy-3-methoxycyclohexyl]-1-methylethyl]-10,21-dimethoxy-6,8,12,14,20,26-hexamethyl-23,27-epoxy-3H-pyrido[2,1-c][1,4] oxaazacyclohentriacontine-1,5,11,28,29 (4H,6H,31H)-pentone] | 47.6 | 0.022 | 85.6 | 28.9 | 14.5 | 1.47 | 40.8 | 15.5 | 29.4 | 38.2 | 2.38 | 7.86 | 33.3 | 91.70 | 1.48 | 0.38 | 9.31 | 20.1 | 0.44 | 15.7 | CD25+ GFP+ edTreg cells (μDISC GFP edTreg; No Radiation): 79.9%; CD25− GFP+ edTreg cells (μDISC GFP edTreg; No Radiation): 8.37%; CD127+ GFP+ edTreg cells (μDISC GFP edTreg; No Radiation): 0.57; CD127− GFP+ edTreg cells (μDISC GFP edTreg; No Radiation): 88.2; CD25+ GFP+ edTreg cells (μDISC GFP edTreg; Radiation (200 Gy), gate live, hCD45+, hCD4+): 82.6%; CD25− GFP+ edTreg cells (μDISC GFP edTreg; Radiation (200 Gy)): 5.52%; CD127− GFP+ edTreg cells (μDISC GFP edTreg; Radiation (200 Gy)): 87.6; CD127+ GFP+ edTreg cells (μDISC GFP edTreg; Radiation): 0.50; number of GFP+ cells in serum sample (μDISC GFP edTreg; [4]): higher; percentage of GFP+ cells (μDISC GFP edTreg; [4]): higher; levels of μDISC GFP edTreg in the peripheral blood (FIG. 17) (μDISC GFP edTreg; tracked weekly for four weeks, rapamycin treated vs. untreated mice): higher levels of μDISC GFP edTreg at each time point, peaking between two and three weeks after cell transfer; Day-15 flow cytometry Q3 [3, 5]: 7.56%; Day-15 flow cytometry Q1 [3, 5]: 1.08%
CO[C@H]1[C@@H](O)[C@H](C)C[C@H](C)/C=C/C=C/C=C(\C)[C@@H](c2c[nH]c3c(C)cccc23)C[C@@H]2CC[C@@H](C)[C@@](O)(O2)C(=O)C(=O)N2CCCC[C@H]2C(=O)O[C@H]([C@H](C)C[C@@H]2CC[C@@H](O)[C@H](OC)C2)C[C@H](O)[C@H](C)/C=C(\C)[C@H]1O [AP21967, C-16-(S)-7-methylindolerapamycin] | 45.7 | 0.033 | 82.1 | 22.5 | 20.4 | 1.63 | 40.3 | 13.6 | 30.8 | 36.8 | 2.99 | 8.81 | 31.5 | 86.00 | 1.74 | 0.39 | 5.54 | 13.3 | 0.59 | 10.7 | Day-3 flow cytometry Q2 ([3]; Q2 = HA+ FOXP3+ successfully edited cells, Expansion Phase 0 additive, 10 nM rapamycin or 100 nM AP21967): 11.90%; Day-15 flow cytometry Q3 [3, 5]: 4.93%; Day-15 flow cytometry Q1 [3, 5]: 0.33%
